PubChem BioAssay (NCI)
Values joined by “and” are separate entries in the source; they are usually repeats but may differ in a detail not shown here. Identical values can stand only once.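 Following 48 hours of exposure in 96-well plates, responses at five concentrations were used to interpolate endpoints linearly. GI50 marks 50% less growth. TGI: total growth inhibition.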

Assays:
Test in all cases: NCI anticancer screen, dose series, 48 h
[1] = system: LOX IMVI melanoma
[2] = system: MCF7 breast
[3] = system: OVCAR-4 ovarian
[4] = system: OVCAR-8 ovarian
[5] = system: SF-268 CNS
[6] = system: SK-MEL-5 melanoma
[7] = system: SN12C renal
[8] = system: SNB-75 CNS
[9] = system: SR leukemia
[10] = system: IGROV1 ovarian

SMILES | TGI [1] | TGI [2] | TGI [3] | TGI [4] | TGI [5] | TGI [6] | TGI [7] | TGI [8] | TGI [9] | TGI [10] | GI50 [8] | GI50 [10] [µM] | GI50 [1] [µM] | GI50 [2] [µM] | GI50 [3] [µM] | GI50 [4] [µM] | GI50 [5] [µM] | GI50 [6] [µM] | GI50 [7] [µM] | GI50 [9] [µM]
COc1ccc(-n2c(CCC(=O)O)nc3c2C(=O)c2ccccc2C3=O)cc1 | > 100 µM | > 100 µM | > 100 µM | > 100 µM | > 100 µM | > 100 µM | > 100 µM | > 100 µM | > 100 µM |  |  |  |  |  |  |  |  |  |  | 
CCOC(=O)N/N=C(/N)c1cccc(Br)c1 | > 100 µM | > 100 µM | > 100 µM | > 100 µM | > 100 µM | > 100 µM | > 100 µM | > 100 µM | > 100 µM | > 100 µM |  |  |  |  |  |  |  |  |  | 
O=C1CCN2c3ccccc3[C@H]3Cc4cccc(c4[C@@H]2C3)CCO1 | > 100 µM | > 100 µM | > 100 µM | > 100 µM | > 100 µM | 54.3 µM | 37.4 µM | 96.7 µM | 74.6 µM | 84.9 µM |  |  |  |  |  |  |  |  |  | 
C=C1CC(C)(COc2ccc3c(C)c(Cl)c(=O)oc3c2)OC1=O (stereo not given) | 2.91 µM | 3.15 µM | 10.4 µM | 17.3 µM | 19.2 µM | 4.2 µM | 18.9 µM | 7.95 µM | 6.47 µM | 3.94 µM |  |  |  |  |  |  |  |  |  | 
CCOC(=O)C(NC(=O)OCc1ccccc1)C(=O)O (stereo not given) | > 100 µM | > 100 µM | > 100 µM | > 100 µM | > 100 µM | > 100 µM | > 100 µM | > 100 µM | > 100 µM | > 100 µM |  |  |  |  |  |  |  |  |  | 
C=CCCC1(O)C(O)C(CO)O[C@H](O[C@@]2(CO)OC(CO)C(O)C2O)C1O (stereo not given in full) | > 100 µM | > 100 µM | > 100 µM | > 100 µM | > 100 µM | > 100 µM | > 100 µM | > 100 µM | > 100 µM | > 100 µM |  |  |  |  |  |  |  |  |  | 
CC(=O)OI1NC(=O)c2ccccc21 | > 100 µM | > 100 µM | > 100 µM | > 100 µM | > 100 µM | > 100 µM | > 100 µM | > 100 µM | > 100 µM | > 100 µM |  |  |  |  |  |  |  |  |  | 
CCC(NC(C)c1ccccc1)C(=O)c1ccc(OCc2ccccc2)c(OCc2ccccc2)c1 (stereo not given) | > 100 µM | > 100 µM | > 100 µM | > 100 µM | > 100 µM | > 100 µM | > 100 µM | > 100 µM | > 100 µM | > 100 µM |  |  |  |  |  |  |  |  |  | 
CCc1n[nH]c(=O)n1CCCCCCCCn1c(CC)n[nH]c1=O | > 100 µM | > 100 µM | > 100 µM | > 100 µM | > 100 µM | > 100 µM | > 100 µM | > 100 µM | > 100 µM | > 100 µM |  |  |  |  |  |  |  |  |  | 
CN(C)CCN(C)P12(Oc3ccccc3O1)Oc1c(Cl)c(Cl)c(Cl)c(Cl)c1O2 | > 100 µM | > 100 µM | > 100 µM | > 100 µM | > 100 µM | > 100 µM | > 100 µM | 82 µM | > 100 µM | > 100 µM |  |  |  |  |  |  |  |  |  | 
COC(=O)c1ccc2c(c1)CC1(C2)Cc2cc3c(cc2C1)CCC3 | > 100 µM | > 100 µM | > 100 µM | > 100 µM | > 100 µM | > 100 µM |  | > 100 µM | > 100 µM | > 100 µM |  |  |  |  |  |  |  |  |  | 
CC1=NN(c2nc(N)nc(NS(=O)(=O)c3cc(C)c(Cl)cc3S)n2)C(C)(C)C1 | > 10 µM | > 10 µM | > 10 µM | > 10 µM | > 10 µM | > 10 µM | > 10 µM | > 10 µM | > 10 µM | > 10 µM |  |  |  |  |  |  |  |  |  | 
CC1(C)OP(=O)(c2ccccc2)C=C1Sc1ccc([N+](=O)[O-])cc1[N+](=O)[O-] (stereo not given) | > 100 µM | > 100 µM | > 100 µM | > 100 µM | > 100 µM | > 100 µM | > 100 µM | > 100 µM | 42.9 µM | > 100 µM |  |  |  |  |  |  |  |  |  | 
Cc1cccc(C2ON=C(c3ccccc3)N2C23CC4CC(CC(C4)C2)C3)c1 (stereo not given) | > 10 µM | > 10 µM | > 10 µM | > 10 µM | > 10 µM | > 10 µM | > 10 µM | > 10 µM | > 10 µM | > 10 µM |  |  |  |  |  |  |  |  |  | 
CN(C)c1ccc(/C=C/C(=O)c2ccc(O)cc2)cc1 | 45.1 µM | > 100 µM | > 100 µM | > 100 µM | > 100 µM | 23.3 µM | > 100 µM | > 42.7 µM | 3.02 µM | > 100 µM |  |  |  |  |  |  |  |  |  | 
CC(C)/C=C1\CCC(CN(C)C)C1=O (stereo not given) | 11.9 µM | 1.8 µM | 30.8 µM | 6.97 µM | 38.8 µM | 12.4 µM | 16.3 µM | 6.51 µM | 4.53 µM | 11.4 µM |  |  |  |  |  |  |  |  |  | 

SMILES | TGI [1] | TGI [2] | TGI [3] | TGI [4] | TGI [5] | TGI [6] | TGI [7] | TGI [8] | TGI [9] | TGI [10] | GI50 [8] | GI50 [10] [µM] | GI50 [1] [µM] | GI50 [2] [µM] | GI50 [3] [µM] | GI50 [4] [µM] | GI50 [5] [µM] | GI50 [6] [µM] | GI50 [7] [µM] | GI50 [9] [µM]
O=C(CNc1ccccn1)Nn1cnc2ccc(S(=O)(=O)Nc3ccccn3)cc2c1=O | > 100 µM | > 100 µM | > 100 µM | > 100 µM | > 100 µM |  | > 100 µM | > 100 µM | > 100 µM | > 100 µM |  |  |  |  |  |  |  |  |  | 
O=C1Oc2ccccc2C1C/C(=N\Nc1ccccc1)c1ccccc1O (stereo not given) | > 100 µM | > 100 µM | > 100 µM | > 100 µM | > 100 µM | > 100 µM | > 100 µM | > 100 µM | 58.1 µM | > 100 µM |  |  |  |  |  |  |  |  |  | 
CC1(C)OC(=O)C(C)(C)C(=O)O1 | > 100 µM | > 100 µM | > 100 µM | > 100 µM | > 100 µM | > 100 µM | > 100 µM | > 100 µM | > 100 µM | > 100 µM |  |  |  |  |  |  |  |  |  | 
COc1ccc(C(O)/C(=N/N)c2nc3ccc(Cl)cc3[nH]c2=O)cc1 (stereo not given) | > 100 µM | > 100 µM | > 100 µM | > 100 µM | > 100 µM | > 100 µM | > 100 µM | > 100 µM | > 100 µM | > 100 µM |  |  |  |  |  |  |  |  |  | 
CNC(=O)c1n[nH]n(C2CCCCC2)c1=S | > 100 µM | > 100 µM | > 100 µM | > 100 µM | > 100 µM | > 100 µM | > 100 µM | > 100 µM | > 100 µM | > 100 µM |  |  |  |  |  |  |  |  |  | 
COc1nc(N=P(c2ccccc2)(c2ccccc2)c2ccccc2)cc(=O)n1C | > 100 µM | > 100 µM | > 100 µM | > 100 µM | > 100 µM | > 100 µM | > 100 µM | > 100 µM | > 100 µM | > 100 µM |  |  |  |  |  |  |  |  |  | 
O=C(NCCN1CCCCC1)c1ccc(Br)cc1 | > 100 µM | > 100 µM | > 100 µM | > 100 µM | > 100 µM | > 100 µM | > 100 µM | > 100 µM | > 100 µM | > 100 µM |  |  |  |  |  |  |  |  |  | 
O=C1N/C(=N\N=C\c2ccccc2)C(c2ccccc2)O1 (stereo not given) | > 100 µM | > 100 µM | > 100 µM | > 100 µM | > 100 µM | > 100 µM | > 100 µM | 0.0124 µM | > 100 µM | > 100 µM |  |  |  |  |  |  |  |  |  | 
CC1=CC(=O)CC2(C)CCC(C(C)CC(=O)CC(C)C)CC12OO (stereo not given) | 31.5 µM and 27.9 µM | 31.9 µM and 31.7 µM | 29.8 µM and > 100 µM | 90.2 µM and 45.4 µM | 44.1 µM and 32.6 µM | 35.5 µM and 30.3 µM | 38 µM and 33.8 µM | 44.9 µM and > 100 µM | 41.5 µM and 41.4 µM | 46.6 µM and 31 µM | 19.8 µM and 55.7 µM |  |  |  |  |  |  |  |  | 
NS(=O)(=O)c1ccc(NC(=O)N/N=C/c2ccccc2O)cc1 | > 100 µM | > 100 µM | > 100 µM | > 100 µM | > 100 µM | > 100 µM | > 100 µM | > 100 µM | > 100 µM | > 100 µM |  |  |  |  |  |  |  |  |  | 
COC1(CC[C@@H](C)COC2OC(CO)C(O)C(O)C2O)O[C@H]2C[C@H]3[C@@H]4CC=C5C[C@@H](OC6OC(CO)C(OC7OC(C)C(O)C(O)C7O)C(O)C6OC6OC(C)C(O)C(O)C6O)CC[C@]5(C)[C@H]4CC[C@]3(C)[C@H]2[C@@H]1C (stereo not given in full) | 1.99 µM | 12.9 µM | 6.72 µM | 8.47 µM | 6.76 µM | 12.2 µM |  | 3.37 µM |  | 7.16 µM |  | 2.5 | 0.645 | 3.74 | 2.44 | 2.39 | 2.38 | 3.51 | 2.87 | 2.96
Clc1ccc(Cl)c(N=Nc2cc3c4c(c2)CCN4CCC3)c1 | > 10 µM | > 10 µM | > 10 µM | > 10 µM | > 10 µM | > 10 µM | > 10 µM | > 10 µM | > 10 µM | > 10 µM |  |  |  |  |  |  |  |  |  | 
FC(F)(F)c1ccccc1C1SCC2=Nc3ccccc3CN21 (stereo not given) | 28.4 µM | 26.5 µM | 30.1 µM | 30.5 µM | 29.2 µM | 27.9 µM | > 100 µM | 36.5 µM | > 100 µM | 29.7 µM |  |  |  |  |  |  |  |  |  | 
O=C1CN(c2ccccc2)Cc2nc(Cl)ccc2N1 | > 100 µM | > 100 µM | > 100 µM | > 100 µM | > 100 µM | > 100 µM | > 100 µM | > 100 µM | > 100 µM | > 100 µM |  |  |  |  |  |  |  |  |  | 
CC(=O)CCCCn1c(=O)c2c(nc(Br)n2C)n(C)c1=O | > 100 µM | > 100 µM | > 100 µM | > 100 µM | > 100 µM | > 100 µM | > 100 µM | > 100 µM | > 100 µM | > 100 µM |  |  |  |  |  |  |  |  |  | 
